The values below come from publication PMC9247258, “Synthesis and Biological Activity Evaluation of 2-Cyanopyrrole Derivatives as Potential Tyrosinase Inhibitors” (Frontiers in Chemistry, 2022).

Structures are written as SMILES.

What is called IC50 is the concentration that inhibits the measured activity by half. Read a low IC50 as greater potency. For orientation: melting point means the temperature, or range, at which the solid turns liquid. Broadly, the inhibition is the percentage by which the read-out fell short of the control.

Data set [1] has as its target T1, mushroom tyrosinase (Agaricus bisporus, UniProt C7FF04). Nature of the data set: Mushroom tyrosinase inhibitory assay (L-DOPA as substrate). It is filed as biochemical. The conditions noted are these: for IC50: mushroom tyrosinase, L-DOPA substrate, absorbance 475 nm. More on the design: purchased Sigma (St. Louis, MO, United States). The procedure:
The mushroom tyrosinase activity assays of synthetic compounds were carried out according to the previously reported modification ([Qin et al., 2015]). L-DOPA was used as the substrate. Briefly, 800 μl of phosphate buffer (50 mM, pH 6.8), 50 μl of mushroom tyrosinase (666.67 U/ml, dissolved in PBS), and 50 μl of inhibitor (dissolved in DMSO) were placed in the plastic centrifuge tube. Then, 100 μl of L-DOPA (5 mM, dissolved in PBS) was added. Subsequently, its change in absorbance at 475 nm was measured in a time-dependent manner using a Beckman UV-650 spectrophotometer. The percentage inhibition was calculated by using [(OD0 - OD1)/OD0] × 100%, where OD0 was the absorbance without inhibitor, and OD1 was the absorbance with the inhibitor. The IC50 value of the potential compound was calculated from dose-response curves of percentage inhibition. Kojic acid was used as a standard control for comparison. All experiments were performed in duplicate.
Target sequence in this assay (C7FF04 1-392 limits assumed): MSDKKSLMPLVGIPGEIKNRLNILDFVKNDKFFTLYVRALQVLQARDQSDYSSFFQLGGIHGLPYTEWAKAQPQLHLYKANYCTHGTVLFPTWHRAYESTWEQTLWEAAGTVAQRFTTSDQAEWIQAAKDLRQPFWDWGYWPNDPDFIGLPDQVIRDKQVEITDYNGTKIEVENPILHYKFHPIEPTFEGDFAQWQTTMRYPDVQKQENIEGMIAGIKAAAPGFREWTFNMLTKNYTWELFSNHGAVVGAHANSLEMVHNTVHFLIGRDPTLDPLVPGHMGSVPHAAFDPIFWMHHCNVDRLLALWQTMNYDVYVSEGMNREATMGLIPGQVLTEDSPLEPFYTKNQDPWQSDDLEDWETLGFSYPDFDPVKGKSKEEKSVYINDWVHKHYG

A further data set has as its system B16 melanoma cells. Nature of the data set: MTT assay, cell cytotoxicity. The data set is classed as cell-based, mouse. The conditions noted are these: 24 h treatment, under a concentration of 100 μM. The method, then: B16 mouse melanoma cells were cultured in Dulbecco’s modified Eagle’s medium (DMEM) containing 10% fetal bovine serum and 1% penicillin/streptomycin at 37°C in a 5% CO2 incubator. B16 cells (100 µl) were plated in a 96-well plate (5 × 10^3 cells/well) for 24 h and then treated with a 100 µl complete medium containing A12 or kojic acid for 24 h. MTT solution (0.5 mg/ml, final concentration) was added to each well, and plates were incubated at 37°C for another 3 h. The absorbance was measured at 490 nm using a multi-detection microplate reader.
In general terms: Tetrazolium dyes change colour on reduction, which living cells bring about.

Data set [2] has as its system tyrosinase in B16 melanoma cells. Description: Cellular tyrosinase activity. The data set is classed as cell-based. The conditions noted are these: Mus musculus, 48 h incubation. The procedure: B16 mouse melanoma cells were cultured in Dulbecco’s modified Eagle’s medium (DMEM) containing 10% fetal bovine serum and 1% penicillin/streptomycin at 37°C in a 5% CO2 incubator. The inhibitory activity of A12 on tyrosinase in B16 cells was evaluated. B16 cells (5 × 10^4 cells/well) were plated in 96-well plates and incubated for 24 h. A measure of 100 µl of complete medium including A12 or kojic acid was added for further incubation of 48 h. Then, cells were added to 50 µl Triton X-100 (1%) and allowed for freezing for 1 h at −80°C. After thawing at room temperature, 10 μl L-DOPA solutions (0.1%, w/v) were added and co-incubated for 1 h at 37°C. The absorbance at 405 nm was measured.

For data set [3], the target named is T1, mushroom tyrosinase. Nature of the data set: Inhibition mechanism and kinetic analysis (v vs [E] plots, Lineweaver-Burk plot). It is filed as biochemical. The procedure:
Experiments were performed to analyze the inhibitory mechanism by the following method. For the text, the mushroom tyrosinase at a final concentration of 16.67–100.00 U/ml and L-DOPA at a final concentration of 0.5 mM were chosen. Then, the mushroom tyrosinase activity was measured in the presence of the inhibitor.
The inhibition type of the inhibitor on mushroom tyrosinase was evaluated by the Lineweaver–Burk plot, and the inhibition constants were obtained from the second plots of the apparent 1/Vmax and Km/Vmax against the inhibitor concentration. In this assay, mushroom tyrosinase at a final concentration of 33.33 U/ml and L-DOPA at a final concentration of 0.25–2 mM were used. The equation for the Lineweaver–Burk plot can be written as follows: 1/v−Km/Vm(1+[I]/KI)+1/Vm(1+[I]/KIS) where v is the reaction velocity, Km is the Michaelis constant, Vm is the maximal velocity, [I] is the concentration of the inhibitor, [S] is the concentration of the substrate, KI is the constant for the inhibitor binding with the free enzyme, and KIS is the constant for the inhibitor binding with the enzyme-substrate complex. KI and KIS were obtained from the slope or the vertical intercept vs. the inhibitor concentration, respectively.
Target sequence in this assay (C7FF04 2-392): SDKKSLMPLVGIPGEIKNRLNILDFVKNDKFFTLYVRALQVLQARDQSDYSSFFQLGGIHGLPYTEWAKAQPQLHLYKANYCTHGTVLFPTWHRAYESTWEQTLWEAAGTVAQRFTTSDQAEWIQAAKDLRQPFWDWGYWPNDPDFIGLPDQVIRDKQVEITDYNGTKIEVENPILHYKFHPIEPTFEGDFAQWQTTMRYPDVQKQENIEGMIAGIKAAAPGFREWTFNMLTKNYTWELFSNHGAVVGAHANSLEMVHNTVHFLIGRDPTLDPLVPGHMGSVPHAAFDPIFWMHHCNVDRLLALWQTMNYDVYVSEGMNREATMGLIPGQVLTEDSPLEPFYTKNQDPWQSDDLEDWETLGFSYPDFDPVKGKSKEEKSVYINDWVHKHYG

Take `Cn1ccc(-c2ccccc2)c1C#N` [Compound A1]: inhibition against mushroom tyrosinase [1] was half-maximal at 7.42 µM (IC50).

The compound `Cn1ccc(-c2ccc(Br)cc2)c1C#N` [Compound A6] showed an IC50 against mushroom tyrosinase [1] of 8.17 µM.

`Cn1ccc(-c2cccc(Br)c2)c1C(N)=O` [Compound B1, 3-(3-Bromophenyl)-1-methyl-1H-pyrrole-2-carboxamide] registered a 50% inhibitory concentration (IC50) against mushroom tyrosinase [1] of over 200 µM.

Turning to `Cn1ccc(-c2ccccc2)c1CNC(=O)OC(C)(C)C` [Compound B6, tert-Butyl ((1-methyl-3-phenyl-1H-pyrrol-2-yl)methyl)carbamate], the melting point was in the range of 87 to 90 °C. This compound also displayed an IC50 against mushroom tyrosinase [1] of over 200 µM.

Consider `N#Cc1c(-c2ccc(Cl)cc2)cc2n1CCCC2` [Compound A16], for which half-maximal inhibition on mushroom tyrosinase [1] (IC50) required 5.06 µM.

`Cn1ccc(-c2ccc(C(F)(F)F)cc2)c1CNC(=O)OC(C)(C)C` [Compound B7, tert-Butyl ((1-methyl-3-(4-(trifluoromethyl)phenyl)-1H-pyrrol-2-yl)methyl)carbamate] showed a melting point of 120 to 122 °C. At mushroom tyrosinase [1], this compound had a half-inhibitory concentration (IC50) of over 200 µM.

Regarding `Cn1ccc(-c2cccc(F)c2)c1CNC(=O)OC(C)(C)C` [Compound B4, tert-Butyl ((3-(3-fluorophenyl)-1-methyl-1H-pyrrol-2-yl)methyl)carbamate], the melting point fell in the range of 103 to 104 °C. The compound also yielded an IC50 against mushroom tyrosinase [1] of over 200 µM.

On to `Cn1ccc(-c2ccc(Br)cc2)c1C(N)=O` [Compound B2, 3-(4-Bromophenyl)-1-methyl-1H-pyrrole-2-carboxamide], for which the melting point lay within 172 to 174 °C. Moreover, the IC50 against mushroom tyrosinase [1] is over 200 µM.

`Cn1ccc(-c2ccccc2Br)c1C#N` [Compound A4]: the IC50 against mushroom tyrosinase [1] worked out at 8.47 µM.

For the compound `Cn1c(-c2ccccc2)cc(-c2ccc(Cl)cc2)c1C#N` [Compound A15], inhibition against mushroom tyrosinase [1] was half-maximal at 87.3 µM (IC50).

Compound `Cn1ccc(-c2cccc(Br)c2)c1CNC(=O)OC(C)(C)C` [Compound B5, tert-Butyl ((3-(3-bromophenyl)-1-methyl-1H-pyrrol-2-yl)methyl)carbamate] gave a melting point of 124 to 127 °C. On mushroom tyrosinase [1], this compound registered an IC50 of over 200 µM.

For the compound `Cn1ccc(-c2cccc(F)c2)c1C#N` [Compound A3], half-maximal inhibition against mushroom tyrosinase [1] (IC50) required 21.4 µM.

Compound `COc1ccccc1-c1ccn(C)c1C#N` [Compound A7] displayed an IC50 at mushroom tyrosinase [1] of 23.6 µM.

`COc1ccc(Br)cc1-c1ccn(C)c1C#N` [Compound A11] displayed an IC50 against mushroom tyrosinase [1] of 2.11 µM.

In the case of `Cn1ccc(-c2ccc(C(F)(F)F)cc2)c1C#N` [Compound A9], it took 12.4 µM to reach half-maximal inhibition at mushroom tyrosinase [1] (IC50).

The compound `N#Cc1c(-c2ccc(Cl)cc2)cc2n1Cc1ccccc1C2` [Compound A17] yielded an IC50 against mushroom tyrosinase [1] of 5.57 µM.

Turning to `Cn1ccc(-c2cccc(Cl)c2Cl)c1C#N` [Compound A10], the IC50 on mushroom tyrosinase [1] is 4.83 µM.

In the case of `O=c1cc(CO)occ1O` [Kojic acid, reference compound], in the data set with B16 melanoma cells, the “cell cytotoxicity on B16 melanoma cells” value is “no cytotoxicity”. In data set [2], this compound returned an inhibition at 100 µM of 39.8%.

Regarding `Cn1ccc(-c2ccc(Br)cc2)c1CNC(=O)OC(C)(C)C` [Compound B3, tert-Butyl ((3-(4-bromophenyl)-1-methyl-1H-pyrrol-2-yl)methyl)carbamate], the melting point lay in the range of 109 to 113 °C. At mushroom tyrosinase [1], this compound showed an IC50 of over 200 µM.

Regarding `COc1ccc(-c2ccn(C)c2C#N)cc1` [Compound A8], the IC50 on mushroom tyrosinase [1] worked out at 89.2 µM.

In the case of `CCn1c(C)cc(-c2ccccc2)c1C#N` [Compound A13], the midpoint of inhibition against mushroom tyrosinase [1], the IC50, lay at 4.46 µM. This IC50 lies about 20-fold lower than the previous one.

As to `Cn1ccc(-c2ccccc2F)c1C#N` [Compound A2], half-maximal inhibition against mushroom tyrosinase [1] (IC50) required 8.72 µM.

On to `N#Cc1c(-c2ccc(Cl)cc2)ccn1Cc1ccccc1` [Compound A14], for which, at mushroom tyrosinase [1], inhibition was half-maximal at 80.5 µM (IC50).

Take `Cn1ccc(-c2ccccc2F)c1CNC(=O)OC(C)(C)C` [Compound B8, tert-Butyl ((3-(2-fluorophenyl)-1-methyl-1H-pyrrol-2-yl)methyl)carbamate]: the melting point was 81 to 84 °C. The compound further yielded an IC50 against mushroom tyrosinase [1] of over 200 µM.

In the case of `C=Cc1ccccc1-c1ccn(C)c1C#N` [Compound A12], the “cell cytotoxicity on B16 melanoma cells” value in the data set on B16 melanoma cells was “no cytotoxicity”. The midpoint of inhibition at mushroom tyrosinase [1], the IC50, lay at 0.97 µM. Besides, the “times stronger than the reference inhibitor kojic acid” value at mushroom tyrosinase [1] (ratio of tyrosinase IC50 values, kojic acid vs compound) is given as about 30 times. Further, the inhibition type result against mushroom tyrosinase [3] (Lineweaver-Burk double reciprocal plots, L-DOPA 0.25-2 mM, tyrosinase 33.33 U/ml) is given as “mixed-type”. Further, the “reversibility of tyrosinase inhibition” value on mushroom tyrosinase [3] (plots of initial velocity vs tyrosinase concentration, L-DOPA 0.5 mM) is listed as “reversible”. For the same compound, the “KIS, equilibrium constant for inhibitor binding with enzyme-substrate complex” value at mushroom tyrosinase [3] (second plot of apparent 1/Vmax vs inhibitor concentration) turned out to be 1.00 µM. In data set [2], the inhibition at 100 µM was found to be 33.5%.

Take `Cn1ccc(-c2cccc(Br)c2)c1C#N` [Compound A5]: the IC50 against mushroom tyrosinase [1] was 16.5 µM.
